From patent publication US10633423B2, “IL-6-binding polypeptide complex” (AFFIBODY AB, priority 2014, dated 2020)

What was measured:
TNF = target: T1, TNF (Homo sapiens, UniProt P01375); assay: ELISA binding activity of matured complexes, TNF (Example 13); conditions: approximate; plates coated with 0.5 μg/ml TNF
T1 construct: purchased R&D Systems
Experimental: The binding of TNF and IL-6 targeting complexes was analyzed in an ELISA assay. Half-area 96-well ELISA plates were directly coated at 4° C. overnight with 0.5 μg/ml of TNF or IL-6 in PBS buffer and the wells were blocked with 100 μl of 3% skim milk/PBS (137 mM NaCl, 2.7 mM KCl, 10 mM Na2HPO4, 1.8 mM KH2PO4) for 1 h at RT. Next, 30 μl of serially diluted complexes and control antibodies from a starting concentration of 1 μg/ml in 3% skim milk/PBS were added to each well. The plates were incubated for 2 h at RT followed by washing four times with PBST 0.05%. HRP conjugated anti-human IgG Fc secondary antibody (Pierce, cat. no. 31423) was diluted 1:5000 in 3% skim milk/PBS and added to the wells followed by 1 h incubation. After washing as described above, 30 μl ImmunoPure TMB substrate (Pierce, cat. no. 34014) was added to the wells and the plates were treated according to the manufacturer's recommendations. Adalimumab (Abbvie, LOT4435XH04) was used as a positive control for the TNF binding activity and as a negative control for the IL-6 binding activity. Furthermore, an irrelevant IgG (Jackson Immunoresearch, cat. no. Jac-009-000-003) was included as a negative control in both assays.

[1] = test system: IL-6/TNF-dependent proliferation of TF-1 cells; assay: TF-1 cell assay, stimulated with both IL-6 and TNF (Example 11); type: cell-based, human; conditions: TF-1 cells simultaneously stimulated with IL-6 and TNF
Experimental: TF-1 cells were cultured in RPMI1640 with L-glut (Lonza) supplemented with 10% FCS (Gibco), Pen-Strep (Lonza) and 2 ng/ml rhGM-CSF (R&D Systems). Prior to use, the cells were washed twice in RPMI1640 in the absence of rhGM-CSF. Cells were then counted and dispensed into 96 well flat bottomed plates at a density of 4×10^4 cells per well. […] The samples were incubated in the presence of either 0.099 nM rhIL-6 (R&D Systems, cat. no. 206-IL/CF), 0.023 nM rhTNF (R&D Systems, cat. no. 210-TA) or a combination of both cytokines. The pre-mixtures were transferred to wells containing TF-1 cells which were incubated for 72 h at 37° C. in a humidified 5% CO2 atmosphere. During the last four hours of incubation, 10 μl of CCK-8 (Fluka, Sigma Aldrich) was added per well to determine the number of proliferating cells. The absorbance was measured at 450 nm (Abs450) using a microplate reader (VICTOR^3, Perkin Elmer). The data on cell growth was assessed by non-linear regression to a four-parameter dose-response curve, and the half maximal inhibitory concentration (IC50) was determined using GraphPad Prism program. The inhibition of IL-6/TNF-dependent proliferation of TF-1 cells by the inhibitory molecules was as Abs450 minus control wells that contained cells but no IL-6.

[2] = test system: IL-6 trans-signaling in human umbilical vein endothelial cells (HUVECs); assay: HUVEC trans-signaling assay, MCP-1 readout; type: cell-based; conditions: Z variants fused to ABD variant PP013
Experimental: To address the trans-signaling pathway, a second assay was used. Herein, human umbilical vein endothelial cells (HUVECs) were stimulated with hIL-6 and soluble hIL-6Rα and the readout was the production of monocyte chemoattractant protein-1 (MCP-1). HUVECs (Lonza) were grown in EGM-2 bullet kit media (Lonza) and passaged in culture no more than eight times. Cells were grown until 75% confluence before use. Cells were detached using trypsin/EDTA (Lonza), resuspended and washed once in fresh medium. Next, cells were counted and dispensed into 96 well flat bottom plates at a density of 2×10^4 cells per well. Cells were cultured overnight at 37° C. in a humidified 5% CO2 atmosphere. […] The pre-mixed solutions with the test molecules and hIL-6/hIL-6Rα were then transferred to wells containing HUVECs, which were incubated for 24 h at 37° C. in a humidified 5% CO2 atmosphere. Cell free supernatant was collected after the incubation period and human MCP-1 levels were determined by sandwich ELISA using the MCP-1 Duoset ELISA development system (R&D Systems).
Half area 96-well ELISA plates were coated with anti-MCP-1 capture antibody (R&D Systems) at a concentration of 1 μg/ml. Plates were incubated overnight at 4° C., washed twice in tap water and blocked for 1 h in PBSC. […] The absorbance was measured at 450 nm using a microplate reader (Victor^3, Perkin Elmer).

[3] = RA patients, monotherapy, Gabay et al 2013; cited from earlier work

T1 sequence (P01375 77-233 limits assumed): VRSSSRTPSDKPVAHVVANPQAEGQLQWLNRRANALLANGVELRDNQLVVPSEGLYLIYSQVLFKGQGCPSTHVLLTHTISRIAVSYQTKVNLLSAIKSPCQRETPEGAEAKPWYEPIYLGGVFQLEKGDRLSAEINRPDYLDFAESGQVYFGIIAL

## Adalimumab
TNF
  EC50: 0.077 nM

## His6-Z04726: negative control Z variant Z04726 (SEQ ID NO:1553) with N-terminal His6-tag [reference compound]
[1]
  blocking of TF-1 cell growth: No effect

## Z03638: control Z variant binding an irrelevant target; tested in fusion with ABD variant PP013 [reference compound]
[2]
  inhibition of IL-6 mediated trans-signaling: did not

## tocilizumab
[3]
  reduction of RA-related symptoms: more effective than adalimumab
